# Data from publication PMC9042912, “T cell receptor and IL-2 signaling strength control memory CD8^+ T cell functional fitness via chromatin remodeling” (Nature Communications, 2022).
# No end group written: not given here.
# Molecular target: T1, H2-K^b (Mus musculus, UniProt P01901)
# T1 construct: RMA-S cells were added per well to a 96-well flat-bottom plate and incubated at 30 °C overnight; endogenous in cells; host or cells: RMA-S cells (TAP-deficient), obtained from Dr. Steve Porcelli
# T1 sequence (P01901 22-369): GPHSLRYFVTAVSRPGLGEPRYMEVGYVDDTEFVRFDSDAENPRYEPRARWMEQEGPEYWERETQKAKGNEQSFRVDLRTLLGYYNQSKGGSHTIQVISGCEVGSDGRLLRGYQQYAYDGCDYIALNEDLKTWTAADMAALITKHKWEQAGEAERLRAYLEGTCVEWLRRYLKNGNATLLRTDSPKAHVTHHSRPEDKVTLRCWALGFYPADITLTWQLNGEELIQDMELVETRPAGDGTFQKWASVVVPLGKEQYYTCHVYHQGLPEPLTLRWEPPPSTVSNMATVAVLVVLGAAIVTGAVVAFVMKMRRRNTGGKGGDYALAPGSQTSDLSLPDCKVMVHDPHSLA
# T1 sequence (P01887 21-119 partner): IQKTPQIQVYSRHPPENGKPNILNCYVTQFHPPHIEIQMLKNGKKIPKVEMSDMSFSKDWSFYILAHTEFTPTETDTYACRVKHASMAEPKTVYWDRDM
# Assay: cell-based
sequence,measurement,value
SIINFEKA [A8],Kd,351 nM
